Activity calls are given as the source filed them. No cut-off for these calls is given here.
What was measured:
A-375 [1] = test: Induction of apoptosis in human A-375 cells assessed as late apoptotic cells at 6 uM after 24 hrs by Annexin-V-FITC/PI-staining based flow cytometry (reference value: 5.7 %); type: functional
A-375 [2] = test: Induction of apoptosis in human A-375 cells assessed as early apoptotic cells after 24 hrs by Annexin-V-FITC/PI-staining based flow cytometry (reference value: 3.1 %); type: functional
A-375 [3] = test: Upregulation of p27 accumulation in human A-375 cells at 6 to 8 uM measured after 12 to 24 hrs by western blot assay; type: functional, cell-based; conditions: dose 6-8 µM, time 12-24 hrs
A-375 [4] = test: Induction of cell cycle arrest in human A-375 cells assessed as accumulation at G2/M phase incubated for 24 hrs by PI staining based flow cytometry analysis (reference value: 8.87 %); type: functional
A-375 [5] = test: Induction of cell cycle arrest in human A-375 cells assessed as accumulation at G2/M phase at 8 uM incubated for 24 hrs by PI staining based flow cytometry analysis (reference value: 1.48 %); type: functional
A-375 [6] = test: Induction of cell cycle arrest in human A-375 cells assessed as accumulation at G2/M phase at 6 uM incubated for 24 hrs by PI staining based flow cytometry analysis (reference value: 1.48 %); type: functional
A-375 [7] = test: Induction of apoptosis in human A-375 cells assessed as early apoptotic cells at 8 uM after 24 hrs by Annexin-V-FITC/PI-staining based flow cytometry (reference value: 1.4 %); type: functional
B16 [8] = test: Induction of apoptosis in mouse B16 cells assessed as late apoptotic cells at 6 uM measured after 24 hrs by Annexin-V-FITC/PI-staining based flow cytometry (reference value: 4.4 %); type: functional
A-375 [9] = test: Induction of autophagy in human A-375 cells assessed as increase in autophagosome with central pulp at 7 uM incubated for 6 to 24 hrs by transmission electron microscopy; type: functional, cell-based; conditions: time 6-24 hrs
B16 [10] = test: Induction of apoptosis in mouse B16 cells assessed as nuclear membrane lysis at 5 to 7 uM incubated for 24 hrs by Hoechst 33258 staining based fluorescence microscopy; type: functional, cell-based; conditions: dose 5-7 µM
A-375 [11] = test: Induction of apoptosis in human A-375 cells assessed as late apoptotic cells at 8 uM after 24 hrs by Annexin-V-FITC/PI-staining based flow cytometry (reference value: 5.7 %); type: functional
NCI-H1299 = test: Cytotoxicity against human NCI-H1299 cells assessed as reduction in cell viability by MTT assay; type: functional, cell-based
B16 [12] = test: Induction of apoptosis in mouse B16 cells assessed as late apoptotic cells preincubated for 2 hrs with […] followed by compound addition and measured after 24 hrs by Annexin-V-FITC/PI-staining based flow cytometry (reference value: 5.7 %); type: functional
B16 [13] = test: Induction of cell cycle arrest in mouse B16 cells assessed as accumulation at S phase incubated for 24 hrs in presence of AG490 by PI staining based flow cytometry analysis (reference value: 42.53 %); type: functional
B16 [14] = test: Induction of cell cycle arrest in mouse B16 cells assessed as accumulation at G0/G1 phase incubated for 24 hrs in presence of AG490 by PI staining based flow cytometry analysis (reference value: 56.59 %); type: functional
B16 [15] = test: Induction of cell cycle arrest in mouse B16 cells assessed as accumulation at S phase at 5 uM incubated for 24 hrs by PI staining based flow cytometry analysis (reference value: 33.46 %); type: functional
A-375 [16] = test: Inhibition of colony formation in human A-375 cells assessed as reduction in number of colonies at 6 to 8 uM incubated for 24 hrs followed by replacement with fresh medium and measured after 14 days by crystal violet staining based analysis; type: functional, cell-based; conditions: dose 6-8 µM
A-375 [17] = test: Induction of autophagy in human A-375 cells assessed as decrease in phosphorylated p70S6K level at 7 uM incubated for 6 to 24 hrs by Western blotting analysis; type: functional, cell-based; conditions: time 6-24 hrs
A-375 [18] = test: Induction of apoptosis in human A-375 cells assessed as nuclear membrane lysis at 6 to 8 uM incubated for 24 hrs by Hoechst 33258 staining based fluorescence microscopy; type: functional, cell-based; conditions: dose 6-8 µM
B16 [19] = test: Induction of apoptosis in mouse B16 cells assessed as early apoptotic cells preincubated for 2 hrs with […] followed by compound addition and measured after 24 hrs by Annexin-V-FITC/PI-staining based flow cytometry (reference value: 0.9 %); type: functional
A-375 [20] = test: Induction of apoptosis in human A-375 cells assessed as increase in cleaved caspase 3 expression at 6 to 8 uM incubated for 24 hrs by Western blot analysis; type: functional, cell-based; conditions: dose 6-8 µM
B16 [21] = test: Induction of cell cycle arrest in mouse B16 cells assessed as accumulation at G0/G1 phase at 7 uM incubated for 24 hrs by PI staining based flow cytometry analysis (reference value: 61.83 %); type: functional
A-375 [22] = test: Induction of cell cycle arrest in human A-375 cells assessed as accumulation at S phase incubated for 24 hrs in presence of AG490 by PI staining based flow cytometry analysis (reference value: 34.44 %); type: functional
B16 [23] = test: Induction of cell cycle arrest in mouse B16 cells assessed as accumulation at S phase at 7 uM incubated for 24 hrs by PI staining based flow cytometry analysis (reference value: 33.46 %); type: functional
B16 [24] = test: Cytotoxicity against mouse B16 cells assessed as decrease in number of adherent cells at 5 to 7 uM incubated for 24 hrs by phase contrast microscope analysis; type: functional, cell-based; conditions: dose 5-7 µM
B16 [25] = test: Induction of cell cycle arrest in mouse B16 cells assessed as accumulation at G0/G1 phase at 5 uM incubated for 24 hrs by PI staining based flow cytometry analysis (reference value: 61.83 %); type: functional

COc1ccc2cc1Oc1ccc(cc1)C[C@H]1c3cc(c(OC)cc3CCN1C)Oc1c(OC)c(OC)c(OC)c3c1[C@H](C2)N(C)CC3 [HERNANDEZINE]
Activity (A-375 [1]): 18.9%
Activity (A-375 [2]): 19.6%
Activity (A-375 [3]): Active
Activity (A-375 [4]): 9.5%
Activity (A-375 [5]): 1.24%
Activity (A-375 [6]): 1.43%
Activity (A-375 [7]): 18.2%
Activity (B16 [8]): 19.2%
Activity (A-375 [9]): Active
Activity (B16 [10]): Active
Activity (A-375 [11]): 53.4%
IC50 (NCI-H1299): 6.74 µM
Activity (B16 [12]): 16%
Activity (B16 [13]): 6.92%
Activity (B16 [14]): 84.61%
Activity (B16 [15]): 23.42%
inhibition (A-375 [16]): Active
Activity (A-375 [17]): Active
Activity (A-375 [18]): Active
Activity (B16 [19]): 14.4%
Activity (A-375 [20]): Active
Activity (B16 [21]): 76.38%
Activity (A-375 [22]): 24.36%
Activity (B16 [23]): 20.64%
Activity (B16 [24]): Active
Activity (B16 [25]): 72%
